Laboratory results reported in ChEMBL document CHEMBL5465560, “Selectivity Literature for EUbOPEN Chemogenomic Library” (2024).

Experiments:
[1] = molecular target: Mitogen-activated protein kinase 10 (Homo sapiens, UniProt P53779); assay: Selectivity interaction (KinomeScan (DiscoverX)) EUB0000666a MAPK10; conditions: at 10 µM
[2] = molecular target: Death-associated protein kinase 1 (Homo sapiens, UniProt P53355); assay: Selectivity interaction (KinomeScan (DiscoverX)) EUB0001619a DAPK1; conditions: at 1 µM
Chain of Death-associated protein kinase 1 (P53355 whole entry, looked up): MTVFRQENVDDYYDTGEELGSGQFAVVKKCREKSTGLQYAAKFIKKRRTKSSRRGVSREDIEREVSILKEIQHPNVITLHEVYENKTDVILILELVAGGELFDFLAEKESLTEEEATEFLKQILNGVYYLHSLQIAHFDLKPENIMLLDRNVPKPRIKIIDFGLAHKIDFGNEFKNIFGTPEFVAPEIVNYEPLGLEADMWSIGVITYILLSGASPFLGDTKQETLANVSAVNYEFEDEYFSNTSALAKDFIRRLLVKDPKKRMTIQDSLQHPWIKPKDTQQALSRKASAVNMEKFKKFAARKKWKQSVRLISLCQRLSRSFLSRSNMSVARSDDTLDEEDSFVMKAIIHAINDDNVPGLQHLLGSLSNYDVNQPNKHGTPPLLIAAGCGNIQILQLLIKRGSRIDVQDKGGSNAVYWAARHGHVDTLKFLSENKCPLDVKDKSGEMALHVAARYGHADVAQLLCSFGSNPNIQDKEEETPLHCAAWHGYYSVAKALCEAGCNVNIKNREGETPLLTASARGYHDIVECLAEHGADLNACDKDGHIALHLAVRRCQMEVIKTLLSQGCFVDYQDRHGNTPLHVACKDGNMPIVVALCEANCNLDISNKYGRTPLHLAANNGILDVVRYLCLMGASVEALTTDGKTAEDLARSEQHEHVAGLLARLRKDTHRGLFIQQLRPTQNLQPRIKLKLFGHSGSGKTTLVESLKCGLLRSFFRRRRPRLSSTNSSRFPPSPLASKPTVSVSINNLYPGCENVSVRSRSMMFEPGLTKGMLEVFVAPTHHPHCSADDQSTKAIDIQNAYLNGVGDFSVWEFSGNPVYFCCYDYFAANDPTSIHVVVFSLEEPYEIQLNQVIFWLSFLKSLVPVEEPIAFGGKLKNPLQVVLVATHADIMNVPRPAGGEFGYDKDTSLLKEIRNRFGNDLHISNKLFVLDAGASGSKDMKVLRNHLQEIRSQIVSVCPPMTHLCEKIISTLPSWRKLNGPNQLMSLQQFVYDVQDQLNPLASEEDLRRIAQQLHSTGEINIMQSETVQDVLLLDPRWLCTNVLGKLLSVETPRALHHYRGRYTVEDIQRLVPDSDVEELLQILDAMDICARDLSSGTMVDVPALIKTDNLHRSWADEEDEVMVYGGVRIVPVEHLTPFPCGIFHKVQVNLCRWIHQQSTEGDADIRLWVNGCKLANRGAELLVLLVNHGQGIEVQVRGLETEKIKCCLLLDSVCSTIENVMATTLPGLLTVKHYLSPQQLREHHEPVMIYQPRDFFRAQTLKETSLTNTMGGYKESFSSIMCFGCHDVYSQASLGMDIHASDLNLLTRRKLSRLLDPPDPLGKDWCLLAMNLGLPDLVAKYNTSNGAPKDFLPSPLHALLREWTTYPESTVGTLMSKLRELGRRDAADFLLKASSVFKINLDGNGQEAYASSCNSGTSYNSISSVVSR

[3] = molecular target: T1, Mitogen-activated protein kinase 15 (Homo sapiens) (UniProt Q8TD08); assay: Selectivity interaction (KinomeScan (DiscoverX)) EUB0000607a MAPK15; conditions: at 10 µM
T1 sequence (whole entry): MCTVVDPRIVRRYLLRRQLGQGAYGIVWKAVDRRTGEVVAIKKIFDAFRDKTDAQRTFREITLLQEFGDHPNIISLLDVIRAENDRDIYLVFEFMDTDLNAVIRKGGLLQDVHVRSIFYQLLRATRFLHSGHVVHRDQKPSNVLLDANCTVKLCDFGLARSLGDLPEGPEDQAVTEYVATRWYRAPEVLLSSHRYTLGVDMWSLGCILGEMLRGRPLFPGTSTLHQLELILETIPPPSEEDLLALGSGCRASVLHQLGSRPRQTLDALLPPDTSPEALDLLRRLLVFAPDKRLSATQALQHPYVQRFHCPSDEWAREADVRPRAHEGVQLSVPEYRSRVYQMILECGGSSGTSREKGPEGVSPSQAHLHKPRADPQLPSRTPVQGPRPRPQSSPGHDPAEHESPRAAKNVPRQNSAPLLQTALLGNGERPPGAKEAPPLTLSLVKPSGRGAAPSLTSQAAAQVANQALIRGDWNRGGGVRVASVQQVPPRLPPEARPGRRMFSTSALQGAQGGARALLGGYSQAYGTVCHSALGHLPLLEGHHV

[4] = molecular target: Tyrosine-protein kinase SYK (Homo sapiens, UniProt P43405); assay: Selectivity interaction (SelectScreen profiling (Invitrogen)) EUB0000607a SYK; conditions: at 2 µM
[5] = molecular target: T2, Protein kinase C iota type (Homo sapiens) (UniProt P41743); assay: Selectivity interaction (ActivX KiNativ screen (kinase selectivity in THP-1 cell lysates)) EUB0000639a PRKCI; format: subcellular; conditions: lysate
T2 sequence (whole entry): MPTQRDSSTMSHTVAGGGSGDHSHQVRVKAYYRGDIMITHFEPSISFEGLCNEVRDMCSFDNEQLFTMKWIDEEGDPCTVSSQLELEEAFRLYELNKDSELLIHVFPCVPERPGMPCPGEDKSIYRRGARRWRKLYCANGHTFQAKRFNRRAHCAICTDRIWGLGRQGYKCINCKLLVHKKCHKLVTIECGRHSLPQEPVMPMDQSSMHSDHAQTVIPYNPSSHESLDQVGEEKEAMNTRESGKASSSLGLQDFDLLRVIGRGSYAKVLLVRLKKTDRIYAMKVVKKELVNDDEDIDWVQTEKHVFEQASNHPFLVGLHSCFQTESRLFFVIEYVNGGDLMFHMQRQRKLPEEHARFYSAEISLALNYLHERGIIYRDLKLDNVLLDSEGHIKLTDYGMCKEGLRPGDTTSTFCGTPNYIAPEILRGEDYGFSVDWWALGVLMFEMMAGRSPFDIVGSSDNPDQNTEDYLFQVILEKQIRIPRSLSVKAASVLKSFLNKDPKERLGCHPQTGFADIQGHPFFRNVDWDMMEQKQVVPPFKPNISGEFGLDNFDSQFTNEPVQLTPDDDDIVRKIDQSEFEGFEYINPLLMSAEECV

[6] = molecular target: T3, Serine/threonine-protein kinase BRSK2 (Homo sapiens) (UniProt Q8IWQ3); conditions: at 10 µM
T3 sequence (whole entry): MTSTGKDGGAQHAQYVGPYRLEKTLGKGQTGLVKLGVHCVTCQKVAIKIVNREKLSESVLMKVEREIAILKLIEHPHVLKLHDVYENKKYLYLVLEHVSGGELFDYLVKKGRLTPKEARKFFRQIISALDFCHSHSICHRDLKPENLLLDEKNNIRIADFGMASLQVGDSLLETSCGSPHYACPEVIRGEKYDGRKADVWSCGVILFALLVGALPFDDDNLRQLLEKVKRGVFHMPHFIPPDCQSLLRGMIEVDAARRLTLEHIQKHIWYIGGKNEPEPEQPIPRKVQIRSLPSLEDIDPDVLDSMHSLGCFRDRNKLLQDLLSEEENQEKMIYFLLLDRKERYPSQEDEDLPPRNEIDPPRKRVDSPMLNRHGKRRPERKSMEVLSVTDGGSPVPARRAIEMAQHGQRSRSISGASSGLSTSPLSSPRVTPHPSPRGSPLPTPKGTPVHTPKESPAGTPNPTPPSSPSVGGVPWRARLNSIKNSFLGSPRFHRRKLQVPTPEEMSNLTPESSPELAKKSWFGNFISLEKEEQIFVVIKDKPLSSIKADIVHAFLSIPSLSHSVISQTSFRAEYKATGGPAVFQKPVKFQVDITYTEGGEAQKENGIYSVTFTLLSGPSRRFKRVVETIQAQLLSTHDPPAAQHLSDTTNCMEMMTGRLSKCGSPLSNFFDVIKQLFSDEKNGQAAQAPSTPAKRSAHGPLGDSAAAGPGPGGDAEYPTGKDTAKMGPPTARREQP

[7] = molecular target: Protein-tyrosine kinase 2-beta (Homo sapiens) (UniProt Q14289); assay: Selectivity interaction (KinomeScan (DiscoverX)) EUB0000092b PTK2B; conditions: at 10 µM
Chain of Protein-tyrosine kinase 2-beta (Homo sapiens) (Q14289 whole entry, looked up): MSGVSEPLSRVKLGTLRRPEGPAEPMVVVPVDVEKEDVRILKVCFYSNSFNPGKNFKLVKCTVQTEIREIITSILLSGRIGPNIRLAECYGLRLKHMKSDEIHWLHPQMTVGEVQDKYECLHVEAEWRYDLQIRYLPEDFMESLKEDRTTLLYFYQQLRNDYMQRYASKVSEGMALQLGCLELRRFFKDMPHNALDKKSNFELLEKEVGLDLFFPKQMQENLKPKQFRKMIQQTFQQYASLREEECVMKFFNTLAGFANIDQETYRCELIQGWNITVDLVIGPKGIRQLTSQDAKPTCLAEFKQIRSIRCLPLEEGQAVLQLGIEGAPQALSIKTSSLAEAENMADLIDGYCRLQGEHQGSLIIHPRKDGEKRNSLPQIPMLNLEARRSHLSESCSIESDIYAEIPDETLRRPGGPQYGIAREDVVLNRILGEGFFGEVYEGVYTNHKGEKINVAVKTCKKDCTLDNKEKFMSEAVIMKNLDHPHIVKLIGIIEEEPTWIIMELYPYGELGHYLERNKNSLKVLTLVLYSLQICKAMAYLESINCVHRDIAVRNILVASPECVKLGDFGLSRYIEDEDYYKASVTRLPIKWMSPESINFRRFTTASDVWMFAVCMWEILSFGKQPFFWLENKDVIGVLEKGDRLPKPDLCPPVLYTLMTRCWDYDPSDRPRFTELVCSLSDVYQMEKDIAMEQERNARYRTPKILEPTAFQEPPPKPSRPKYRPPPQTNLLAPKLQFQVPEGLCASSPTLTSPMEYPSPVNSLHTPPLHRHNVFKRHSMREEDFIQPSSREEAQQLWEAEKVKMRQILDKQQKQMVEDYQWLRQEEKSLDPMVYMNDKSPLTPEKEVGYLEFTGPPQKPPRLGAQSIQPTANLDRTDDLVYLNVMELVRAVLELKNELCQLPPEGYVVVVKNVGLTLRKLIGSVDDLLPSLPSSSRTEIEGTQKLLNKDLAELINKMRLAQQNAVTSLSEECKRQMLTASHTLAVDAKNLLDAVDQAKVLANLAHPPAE

[8] = molecular target: BDNF/NT-3 growth factors receptor (Homo sapiens) (UniProt Q16620); assay: Selectivity interaction (Ambit KINOMEscan and KiNATiv profiling in Jurkat cells) EUB0000090b NTRK2; format: cell-based; conditions: at 1 µM
Chain of BDNF/NT-3 growth factors receptor (Homo sapiens) (Q16620 32-822 limits assumed): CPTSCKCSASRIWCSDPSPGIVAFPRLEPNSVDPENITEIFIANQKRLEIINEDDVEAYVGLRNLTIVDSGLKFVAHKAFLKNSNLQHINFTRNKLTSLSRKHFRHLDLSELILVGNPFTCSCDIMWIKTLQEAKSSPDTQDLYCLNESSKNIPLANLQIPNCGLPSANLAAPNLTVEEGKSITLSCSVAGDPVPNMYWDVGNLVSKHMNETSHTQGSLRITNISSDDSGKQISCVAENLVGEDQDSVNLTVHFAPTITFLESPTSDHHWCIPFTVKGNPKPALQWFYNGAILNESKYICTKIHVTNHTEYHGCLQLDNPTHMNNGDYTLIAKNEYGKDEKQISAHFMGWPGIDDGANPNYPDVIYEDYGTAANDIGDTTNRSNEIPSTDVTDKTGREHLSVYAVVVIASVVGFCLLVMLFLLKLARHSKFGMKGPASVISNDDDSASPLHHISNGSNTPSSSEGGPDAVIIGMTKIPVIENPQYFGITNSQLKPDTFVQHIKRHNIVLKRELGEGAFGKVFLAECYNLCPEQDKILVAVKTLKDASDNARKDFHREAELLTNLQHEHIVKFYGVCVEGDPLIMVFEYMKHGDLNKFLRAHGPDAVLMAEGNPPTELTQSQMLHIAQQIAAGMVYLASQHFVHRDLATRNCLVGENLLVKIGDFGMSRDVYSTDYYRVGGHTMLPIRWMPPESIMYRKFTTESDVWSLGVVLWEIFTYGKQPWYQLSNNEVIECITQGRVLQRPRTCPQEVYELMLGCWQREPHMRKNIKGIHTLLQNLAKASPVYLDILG

Chain of Mitogen-activated protein kinase 10 (P53779 whole entry): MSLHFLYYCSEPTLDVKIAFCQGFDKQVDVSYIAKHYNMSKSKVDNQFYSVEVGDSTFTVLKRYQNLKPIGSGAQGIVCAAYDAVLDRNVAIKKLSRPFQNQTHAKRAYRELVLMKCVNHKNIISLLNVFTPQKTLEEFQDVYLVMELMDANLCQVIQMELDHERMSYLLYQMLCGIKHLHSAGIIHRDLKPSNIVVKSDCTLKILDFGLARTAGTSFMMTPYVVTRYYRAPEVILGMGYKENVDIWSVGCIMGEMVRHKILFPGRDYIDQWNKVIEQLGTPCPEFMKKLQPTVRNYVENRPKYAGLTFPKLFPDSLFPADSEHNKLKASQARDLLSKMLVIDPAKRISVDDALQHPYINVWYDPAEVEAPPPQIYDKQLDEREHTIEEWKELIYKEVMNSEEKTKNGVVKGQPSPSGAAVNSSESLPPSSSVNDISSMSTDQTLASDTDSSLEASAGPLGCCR

O=C(NOC[C@H](O)CO)c1ccc(F)c(F)c1Nc1ccc(I)cc1F
% of control [1]: 90%

N#Cc1cccc(-c2c[nH]c3ncnc(N4CCOCC4)c23)c1
% of control [2]: 89%

CNC(=O)Nc1ccc(-c2nc(N3CC4CCC(C3)O4)c3cnn(C4CCC5(CC4)OCCO5)c3n2)cc1
% of control [3]: 25% | % of inhibition [4]: 1%

CC[C@@H]1[C@H](F)C(=O)N[C@@H]1COc1nccc2cc(C(N)=O)c(OC)cc12 [ZIMLOVISERTIB]
% of inhibition ([5]; at 0.01 µM): 8.5% | % of inhibition ([5]; at 0.04 µM): -2.3% | % of inhibition ([5]; at 0.2 µM): -7.6% | % of inhibition ([5]; at 1 µM): 6.9% | % of inhibition ([5]; at 5 µM): -26.2%

CCN(CC)CCCCNc1ncc2cc(-c3cc(OC)cc(OC)c3)c(NC(=O)NC(C)(C)C)nc2n1
% of control [6]: 100%

CCC(=O)N1CCN(c2ccc(-n3c(=O)ccc4cnc5ccc(-c6cnc7ccccc7c6)cc5c43)cc2C(F)(F)F)CC1
% of control [7]: 100%

CN(C)C/C=C/C(=O)Nc1ccc(C(=O)N2CCCC(Nc3ncc(Cl)c(-c4c[nH]c5ccccc45)n3)C2)cc1 (configuration not stated)
% of control [8]: 76%
